Experimental data taken from EPA's CvTdb concentration-time database.

What was measured:
Experiment in all cases: concentration in plasma after dosing
Rat [1] = conditions: dosed: Formamide, 30 mg/kg, iv, Female, F344
Rat [2] = conditions: 0.5 h; dosed: Formamide; 10 mg/kg; iv; Female; Harlan Sprague-Dawley
Rat [3] = conditions: dosed: Formamide, 10 mg/kg, iv, Male, F344
Rat [4] = conditions: dosed: Formamide, 30 mg/kg, iv, Female, F344; remark: listed apart in the source
Rat [5] = conditions: dosed: Formamide, 10 mg/kg, iv, Male, F344; remark: listed apart in the source
Rat [6] = conditions: dosed: Formamide, 30 mg/kg, iv, Female, F344; remark: listed apart in the source
Rat [7] = conditions: 5 h; dosed: Formamide; 10 mg/kg; iv; Male; F344
Rat [8] = conditions: dosed: Formamide, iv
Rat [9] = conditions: dosed: Formamide, 10 mg/kg, iv, Male, F344; remark: listed apart in the source
Rat [10] = conditions: dosed: Formamide, 30 mg/kg, iv, Female, F344; remark: listed apart in the source
Rat [11] = conditions: dosed: Formamide, 10 mg/kg, iv, Male, F344; remark: listed apart in the source
Rat [12] = conditions: 2 h; dosed: Formamide; 10 mg/kg; iv; Male; F344
Rat [13] = conditions: 0.5 h; dosed: Formamide; 10 mg/kg; iv; Male; F344
Rat [14] = conditions: dosed: Formamide, 10 mg/kg, iv, Male, F344; remark: listed apart in the source
Rat [15] = conditions: 0.5 h; dosed: Formamide; 10 mg/kg; iv; Female; Harlan Sprague-Dawley; remark: listed apart in the source
Rat [16] = conditions: dosed: Formamide, 10 mg/kg, iv, Male, F344; remark: listed apart in the source
Rat [17] = conditions: 2 h; dosed: Formamide; 10 mg/kg; iv; Male; F344; remark: listed apart in the source
Rat [18] = conditions: dosed: Formamide, 10 mg/kg, iv, Male, F344; remark: listed apart in the source
Rat [19] = conditions: 0.5 h; dosed: Formamide; 30 mg/kg; iv; Female; F344
Rat [20] = conditions: dosed: Formamide, 10 mg/kg, iv, Female, F344
Rat [21] = conditions: dosed: Formamide, 10 mg/kg, iv, Male, F344; remark: listed apart in the source
Rat [22] = conditions: 3 h; dosed: Formamide; 10 mg/kg; iv; Male; F344
Rat [23] = conditions: dosed: Formamide, 10 mg/kg, iv, Female, Harlan Sprague-Dawley
Rat [24] = conditions: dosed: Formamide, 30 mg/kg, iv, Female, F344; remark: listed apart in the source
Rat [25] = conditions: dosed: Formamide, 10 mg/kg, iv, Male, F344; remark: listed apart in the source
Rat [26] = conditions: dosed: Formamide, 30 mg/kg, iv, Female, F344; remark: listed apart in the source
Rat [27] = conditions: dosed: Formamide, 10 mg/kg, iv, Male, F344; remark: listed apart in the source
Rat [28] = conditions: dosed: Formamide, 10 mg/kg, iv, Male, F344; remark: listed apart in the source
Rat [29] = conditions: 2 h; dosed: Formamide; 10 mg/kg; iv; Male; F344; remark: listed apart in the source
Rat [30] = conditions: dosed: Formamide, 10 mg/kg, iv, Male, F344; remark: listed apart in the source
Rat [31] = conditions: dosed: Formamide, 10 mg/kg, iv, Male, F344; remark: listed apart in the source
Rat [32] = conditions: dosed: Formamide, 10 mg/kg, iv, Male, F344; remark: listed apart in the source
Rat [33] = conditions: 2 h; dosed: Formamide; 10 mg/kg; iv; Male; F344; remark: listed apart in the source
Rat [34] = conditions: dosed: Formamide, 10 mg/kg, iv, Female, Harlan Sprague-Dawley; remark: listed apart in the source
Rat [35] = conditions: dosed: Formamide, 30 mg/kg, iv, Female, F344; remark: listed apart in the source
Rat [36] = conditions: 5 h; dosed: Formamide; 10 mg/kg; iv; Male; F344; remark: listed apart in the source
Rat [37] = conditions: 2 h; dosed: Formamide; 10 mg/kg; iv; Male; F344; remark: listed apart in the source
Rat [38] = conditions: dosed: Formamide, 10 mg/kg, iv, Male, F344; remark: listed apart in the source
Rat [39] = conditions: 5 h; dosed: Formamide; 10 mg/kg; iv; Male; F344; remark: listed apart in the source
Rat [40] = conditions: dosed: Formamide, 10 mg/kg, iv, Male, F344; remark: listed apart in the source
Rat [41] = conditions: 0.5 h; dosed: Formamide; 10 mg/kg; iv; Male; F344; remark: listed apart in the source
Rat [42] = conditions: dosed: Formamide, 10 mg/kg, iv, Male, F344; remark: listed apart in the source
Rat [43] = conditions: dosed: Formamide, 10 mg/kg, iv, Female, F344; remark: listed apart in the source
Rat [44] = conditions: 5 h; dosed: Formamide; 10 mg/kg; iv; Male; F344; remark: listed apart in the source
Rat [45] = conditions: dosed: Formamide, 10 mg/kg, iv, Male, F344; remark: listed apart in the source

NC=O [Formamide]
Conditions | concentration in plasma [ng/mL]
Rat [1], 0.5 h | 44700
Rat [1], 48 h | 1600
Rat [3], 0.25 h | 13300
Rat [3], 24 h | 3900
Rat [4], 5 min | 43900
Rat [4], 36 h | 2500
Rat [5], 0.25 h | 6900
Rat [5], 24 h | 2900
Rat [6], 0.25 h | 16100
Rat [6], 24 h | 10100
Rat [9], 8 h | 7100
Rat [9], 12 h | 5600
Rat [10], 0.25 h | 17600
Rat [10], 24 h | 7700
Rat [11], 8 h | 5700
Rat [11], 12 h | 6800
Rat [14], 1 h | 12700
Rat [14], 3 h | 12800
Rat [16], 5 min | 13700
Rat [16], 36 h | 3100
Rat [18], 1 h | 14500
Rat [18], 3 h | 12400
Rat [20], 10 min | 12500
Rat [20], 18 h | 3300
Rat [21], 10 min | 15400
Rat [21], 18 h | 4700
Rat [23], 0.25 h | 13000
Rat [23], 24 h | 2100
Rat [24], 5 min | 39500
Rat [24], 36 h | 3400
Rat [25], 5 min | 12900
Rat [25], 36 h | 2200
Rat [26], 8 h | 27500
Rat [26], 12 h | 22800
Rat [27], 8 h | 9200
Rat [27], 12 h | 6700
Rat [28], 1 h | 13400
Rat [28], 3 h | 11700
Rat [30], 1 h | 13500
Rat [30], 3 h | 13300
Rat [31], 5 min | 11200
Rat [31], 36 h | 1400
Rat [32], 5 min | 11900
Rat [32], 36 h | 2000
Rat [34], 0.25 h | 14700
Rat [34], 24 h | 2900
Rat [35], 8 h | 26800
Rat [35], 12 h | 22600
Rat [38], 8 h | 8000
Rat [38], 12 h | 6700
Rat [40], 10 min | 10700
Rat [40], 18 h | 2900
Rat [42], 5 min | 2100
Rat [42], 36 h | 2100
Rat [43], 10 min | 8500
Rat [43], 18 h | 2900
Rat [45], 8 h | 8600
Rat [45], 12 h | 5100

Conditions | concentration in plasma [ng/mL]
Rat [2] | 13500
Rat [7] | 13700
Rat [12] | 12800
Rat [13] | 13400
Rat [15] | 11100
Rat [17] | 14100
Rat [19] | 39700
Rat [22] | 12000
Rat [29] | 12400
Rat [33] | 12600
Rat [36] | 13400
Rat [37] | 13000
Rat [39] | 10500
Rat [41] | 11100
Rat [44] | 9600

concentration in plasma [ng/mL], Rat [8]
Conditions | Female | Male
0.25 h, 10 mg/kg, F344 | – | 7100
0.25 h, 10 mg/kg, Harlan Sprague-Dawley | 13600 | –
0.25 h, 30 mg/kg, F344 | 37100 | –
0.5 h, 10 mg/kg, F344 | – | 14100
0.5 h, 10 mg/kg, Harlan Sprague-Dawley | 9300 | –
0.5 h, 30 mg/kg, F344 | 28200 | –
1 h, 10 mg/kg, F344 | – | 14700
2 h, 10 mg/kg, F344 | – | 12500
3 h, 10 mg/kg, F344 | – | 13700
5 h, 10 mg/kg, F344 | – | 14200
5 h, 10 mg/kg, Harlan Sprague-Dawley | 13000 | –
5 min, 10 mg/kg, F344 | – | 11800
5 min, 30 mg/kg, F344 | 46500 | –
8 h, 10 mg/kg, F344 | – | 8200
8 h, 30 mg/kg, F344 | 25000 | –
10 min, 10 mg/kg, F344 | 3500 | 14200
12 h, 10 mg/kg, F344 | – | 6300
12 h, 30 mg/kg, F344 | 21400 | –
18 h, 10 mg/kg, F344 | 3400 | 4000
24 h, 10 mg/kg, F344 | – | 3800
24 h, 10 mg/kg, Harlan Sprague-Dawley | 2300 | –
24 h, 30 mg/kg, F344 | 7900 | –
36 h, 10 mg/kg, F344 | – | 2300
36 h, 30 mg/kg, F344 | 4300 | –
48 h, 30 mg/kg, F344 | 1200 | –
